Laboratory results as given in paper PMC8766756, “Insights on Cancer Cell Inhibition, Subcellular Activities, and Kinase Profile of Phenylacetamides Pending 1H-Imidazol-5-One Variants” (Frontiers in Pharmacology, 2022).
Where “and” joins values, the source holds several entries; their conditions need not be identical. Equal entries are not always repeated.

Tests used:
Assay in all cases: PamChip tyrosine kinase microarray
Type in all cases: biochemical
Details in all cases: 0.1 µM, HL60 lysate
EphA4 (P54764) = target: T1, EphA4 (P54764) (Homo sapiens, UniProt P54764)
T1 construct: purchased PamGene (PamChip PTK array, Upstream Kinase Analysis)
T1 sequence (P54764 20-986): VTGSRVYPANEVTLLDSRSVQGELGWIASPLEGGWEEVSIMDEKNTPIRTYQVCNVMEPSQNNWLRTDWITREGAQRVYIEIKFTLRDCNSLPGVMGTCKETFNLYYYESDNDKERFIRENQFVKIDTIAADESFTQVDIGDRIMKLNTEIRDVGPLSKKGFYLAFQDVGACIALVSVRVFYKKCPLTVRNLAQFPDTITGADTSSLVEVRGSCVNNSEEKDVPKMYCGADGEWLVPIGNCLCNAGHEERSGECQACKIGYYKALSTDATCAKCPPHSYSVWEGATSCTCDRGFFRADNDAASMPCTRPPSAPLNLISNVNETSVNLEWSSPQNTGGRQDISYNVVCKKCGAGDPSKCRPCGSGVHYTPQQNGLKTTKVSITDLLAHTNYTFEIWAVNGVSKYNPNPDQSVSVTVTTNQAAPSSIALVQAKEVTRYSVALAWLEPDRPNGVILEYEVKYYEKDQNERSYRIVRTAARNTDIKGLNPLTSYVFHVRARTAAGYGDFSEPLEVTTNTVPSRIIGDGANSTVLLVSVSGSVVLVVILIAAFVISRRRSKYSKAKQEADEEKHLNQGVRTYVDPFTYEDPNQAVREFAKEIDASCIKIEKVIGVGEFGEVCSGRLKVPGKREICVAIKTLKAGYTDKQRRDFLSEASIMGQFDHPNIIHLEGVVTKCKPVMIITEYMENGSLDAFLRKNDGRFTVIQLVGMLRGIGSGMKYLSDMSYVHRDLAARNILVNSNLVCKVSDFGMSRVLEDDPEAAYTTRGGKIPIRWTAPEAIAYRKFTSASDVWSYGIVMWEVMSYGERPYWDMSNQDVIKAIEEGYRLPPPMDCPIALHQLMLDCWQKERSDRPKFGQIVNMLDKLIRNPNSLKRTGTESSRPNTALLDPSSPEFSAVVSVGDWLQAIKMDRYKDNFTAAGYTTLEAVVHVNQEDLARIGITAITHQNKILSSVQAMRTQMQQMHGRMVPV
Experimental: (§1) The reproducible high potency of KIM-161 on leukemia cell lines was initially speculated to encompass Src tyrosine kinase inhibition. Even so, we also suspected that KIM-161 might be affecting other tyrosine kinases because the HL60 cells are not among the most Src-dependent highly proliferative cells ([Collins, 1987]). Therefore, a profiling of the kinase activities was performed after treatment with KIM-161 using PamChip® tyrosine kinase microarray. This analysis is based on incubation of cell lysate with 3D microarray that projects peptides specific for 143 tyrosine kinases. If a kinase is modified in the cells, it will be detected by phosphorylating its specific peptide in the microarray.
(§2) This test measured the activities of an array of tyrosine kinases of treated HL60 cells compared to the control (untreated cells) after incubation with KIM-161 for 48 h at concentrations of 0.001, 0.01, 0.1, 1.0, 10, and 50 µM. The log fold change (LFC) heat map was initially used to identify significant peptides affected at each concentration (Figure 5).
(§3) An Upstream Kinase Tool was used to generate a putative list of kinases responsible for phosphorylating the phosphosites on the PamChip®. It is an interpretation and is highly dependent on the contents of the underlying phosphorylation databases. Kinase score (Table 2) was used for ranking kinases based on their significance and specificity in terms of the set of peptides used for the corresponding kinase. Kinase statistics indicates the overall change of the peptide set that represents a certain kinase. Kinase statistics value of <0 indicates lower kinase activity in the lysate spiked with the compound and vice versa. Table 2 lists the 20 most changed kinases within treated HL60 cell lysates by 0.1 μM KIM-161.
(§4) Every compound had spiked into a leukemic (AML) cell line HL60 lysate at different concentrations (0.001, 0.01, 0.1, 1, 10, and 50 μM). In addition, DMSO had also spiked at a low concentration (2% v/v) to the HL60 lysate as the control. The samples were profiled on PamGene's tyrosine kinase (PTK) arrays in technical replicates, covering a total of 196 phosphorylation sites. The frozen leukemic HL60 cultured cell pellet was sent to PamGene. At PamGene, the cells were lysed in the presence of the lysis buffer and proteases inhibitor cocktail. The protein concentration was measured using the standard Bradford assay as per the PamGene SOPs. These lysates were further used for generating the PTK activity profiles. For spiking, KIM-161 was received in powder form and dissolved in DMSO at the PamGene facility, followed by storing it at −20°C in small aliquots. PamGene used its in-house bioinformatics toolbox in combination with other methods to generate the hypotheses of signaling pathways.

Fes (P07332) = target: T2, Fes (P07332) (Homo sapiens, UniProt P07332)
T2 construct: purchased PamGene (PamChip PTK array, Upstream Kinase Analysis)
T2 sequence (P07332 whole entry): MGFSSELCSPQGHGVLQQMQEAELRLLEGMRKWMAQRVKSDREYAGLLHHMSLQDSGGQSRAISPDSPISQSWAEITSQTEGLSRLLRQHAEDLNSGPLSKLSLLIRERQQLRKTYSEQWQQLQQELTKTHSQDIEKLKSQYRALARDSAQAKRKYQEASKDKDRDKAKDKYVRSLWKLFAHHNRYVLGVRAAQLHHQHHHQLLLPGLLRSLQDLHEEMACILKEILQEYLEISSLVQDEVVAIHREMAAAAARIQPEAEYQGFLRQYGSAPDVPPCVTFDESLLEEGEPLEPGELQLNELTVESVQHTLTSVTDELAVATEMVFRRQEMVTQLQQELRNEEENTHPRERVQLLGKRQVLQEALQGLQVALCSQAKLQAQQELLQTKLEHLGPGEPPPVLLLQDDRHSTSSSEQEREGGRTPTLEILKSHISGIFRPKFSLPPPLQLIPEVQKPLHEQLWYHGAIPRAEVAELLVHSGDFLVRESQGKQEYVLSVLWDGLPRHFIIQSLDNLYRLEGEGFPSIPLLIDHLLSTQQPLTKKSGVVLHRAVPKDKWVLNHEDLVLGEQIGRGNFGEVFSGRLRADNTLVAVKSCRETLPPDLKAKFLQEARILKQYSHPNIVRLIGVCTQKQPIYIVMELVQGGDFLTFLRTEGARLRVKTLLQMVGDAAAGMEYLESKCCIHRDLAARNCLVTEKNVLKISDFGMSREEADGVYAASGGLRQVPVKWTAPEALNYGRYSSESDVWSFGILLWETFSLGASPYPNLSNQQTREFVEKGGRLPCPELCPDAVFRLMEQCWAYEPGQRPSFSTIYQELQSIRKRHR
Experimental: as §1, §2, §3, §4

Fgr (P09769) = target: T3, Fgr (P09769) (Homo sapiens, UniProt P09769)
T3 construct: purchased PamGene (PamChip PTK array, Upstream Kinase Analysis)
T3 sequence (P09769 whole entry): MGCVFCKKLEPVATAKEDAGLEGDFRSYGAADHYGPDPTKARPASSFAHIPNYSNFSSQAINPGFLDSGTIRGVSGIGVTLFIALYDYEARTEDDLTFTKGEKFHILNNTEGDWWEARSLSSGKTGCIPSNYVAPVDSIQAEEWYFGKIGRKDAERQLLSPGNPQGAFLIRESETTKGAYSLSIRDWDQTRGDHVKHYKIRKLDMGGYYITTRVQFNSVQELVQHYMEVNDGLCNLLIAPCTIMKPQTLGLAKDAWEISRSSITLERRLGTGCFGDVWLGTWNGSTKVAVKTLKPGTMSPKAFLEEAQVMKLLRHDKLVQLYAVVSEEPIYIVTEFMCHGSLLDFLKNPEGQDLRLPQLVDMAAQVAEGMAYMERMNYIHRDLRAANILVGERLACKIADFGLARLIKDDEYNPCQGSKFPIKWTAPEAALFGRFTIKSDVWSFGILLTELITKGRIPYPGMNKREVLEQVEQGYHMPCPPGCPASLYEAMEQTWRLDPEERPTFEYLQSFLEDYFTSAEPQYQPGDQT
Experimental: as §1, §2, §3, §4

Lmr1 (Q6ZMQ8) = target: T4, Lmr1 (Q6ZMQ8) (Homo sapiens, UniProt Q6ZMQ8)
T4 construct: purchased PamGene (PamChip PTK array, Upstream Kinase Analysis)
T4 sequence (Q6ZMQ8 1-1374): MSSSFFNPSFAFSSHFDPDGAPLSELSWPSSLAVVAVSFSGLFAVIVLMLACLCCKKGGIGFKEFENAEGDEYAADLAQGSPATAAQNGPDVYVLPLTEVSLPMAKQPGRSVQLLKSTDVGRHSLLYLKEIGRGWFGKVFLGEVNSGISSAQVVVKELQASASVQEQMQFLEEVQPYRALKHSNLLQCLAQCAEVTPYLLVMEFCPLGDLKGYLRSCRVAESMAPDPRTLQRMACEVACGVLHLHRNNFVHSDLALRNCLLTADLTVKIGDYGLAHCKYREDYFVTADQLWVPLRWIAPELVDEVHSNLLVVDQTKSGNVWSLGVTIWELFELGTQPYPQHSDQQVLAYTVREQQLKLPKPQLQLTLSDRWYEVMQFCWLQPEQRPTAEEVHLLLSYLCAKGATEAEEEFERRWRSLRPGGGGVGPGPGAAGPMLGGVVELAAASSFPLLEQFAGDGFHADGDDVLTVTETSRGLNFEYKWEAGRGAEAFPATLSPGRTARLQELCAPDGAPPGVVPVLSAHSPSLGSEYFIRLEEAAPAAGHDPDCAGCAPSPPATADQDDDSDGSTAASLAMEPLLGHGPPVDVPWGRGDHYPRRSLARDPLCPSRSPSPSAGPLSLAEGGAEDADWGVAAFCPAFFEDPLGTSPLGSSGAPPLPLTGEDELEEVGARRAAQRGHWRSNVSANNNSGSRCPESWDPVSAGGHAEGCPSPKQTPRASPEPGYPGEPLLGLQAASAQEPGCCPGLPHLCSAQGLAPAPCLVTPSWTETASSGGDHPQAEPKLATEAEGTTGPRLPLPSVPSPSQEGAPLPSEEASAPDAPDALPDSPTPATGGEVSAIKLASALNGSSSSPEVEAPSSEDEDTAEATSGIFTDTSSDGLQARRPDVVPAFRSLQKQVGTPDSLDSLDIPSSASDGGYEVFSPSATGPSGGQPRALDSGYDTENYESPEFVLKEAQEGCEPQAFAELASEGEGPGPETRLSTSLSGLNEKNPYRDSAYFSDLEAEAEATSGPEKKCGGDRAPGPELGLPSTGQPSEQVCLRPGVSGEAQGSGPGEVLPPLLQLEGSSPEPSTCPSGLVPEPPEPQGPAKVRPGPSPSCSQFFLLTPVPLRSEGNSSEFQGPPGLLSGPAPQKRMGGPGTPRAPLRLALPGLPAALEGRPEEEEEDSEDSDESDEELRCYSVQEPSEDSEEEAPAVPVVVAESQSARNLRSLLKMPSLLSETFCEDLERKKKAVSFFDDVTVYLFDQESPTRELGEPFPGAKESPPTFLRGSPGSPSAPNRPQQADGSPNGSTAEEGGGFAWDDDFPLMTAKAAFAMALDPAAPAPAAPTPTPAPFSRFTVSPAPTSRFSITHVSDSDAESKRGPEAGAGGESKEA
Experimental: as §1, §2, §3, §4

RYK (H0Y8A4) = target: T5, RYK (H0Y8A4) (Homo sapiens, UniProt P34925)
T5 construct: purchased PamGene (PamChip PTK array, Upstream Kinase Analysis)
T5 sequence (P34925 26-607, one chain of several): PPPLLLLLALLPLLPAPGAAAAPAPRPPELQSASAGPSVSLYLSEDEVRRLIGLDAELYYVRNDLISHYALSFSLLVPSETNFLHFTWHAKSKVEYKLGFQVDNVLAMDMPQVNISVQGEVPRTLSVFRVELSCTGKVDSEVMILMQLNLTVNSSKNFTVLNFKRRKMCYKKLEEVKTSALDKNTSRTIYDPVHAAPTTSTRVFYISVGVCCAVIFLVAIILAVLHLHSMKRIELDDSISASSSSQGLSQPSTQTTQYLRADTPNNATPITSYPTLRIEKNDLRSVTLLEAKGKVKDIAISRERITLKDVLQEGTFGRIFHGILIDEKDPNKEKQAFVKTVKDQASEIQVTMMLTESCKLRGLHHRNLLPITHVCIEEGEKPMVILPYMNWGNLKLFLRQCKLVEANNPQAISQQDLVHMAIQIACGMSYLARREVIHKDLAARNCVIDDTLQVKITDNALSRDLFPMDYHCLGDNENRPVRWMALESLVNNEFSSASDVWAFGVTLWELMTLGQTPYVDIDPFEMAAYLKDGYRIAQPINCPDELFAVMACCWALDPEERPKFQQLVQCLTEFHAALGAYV
Experimental: as §1, §2, §3, §4

TRKA (P04629) = target: T6, TRKA (P04629) (Homo sapiens, UniProt P04629)
T6 construct: purchased PamGene (PamChip PTK array, Upstream Kinase Analysis)
T6 sequence (P04629 33-796): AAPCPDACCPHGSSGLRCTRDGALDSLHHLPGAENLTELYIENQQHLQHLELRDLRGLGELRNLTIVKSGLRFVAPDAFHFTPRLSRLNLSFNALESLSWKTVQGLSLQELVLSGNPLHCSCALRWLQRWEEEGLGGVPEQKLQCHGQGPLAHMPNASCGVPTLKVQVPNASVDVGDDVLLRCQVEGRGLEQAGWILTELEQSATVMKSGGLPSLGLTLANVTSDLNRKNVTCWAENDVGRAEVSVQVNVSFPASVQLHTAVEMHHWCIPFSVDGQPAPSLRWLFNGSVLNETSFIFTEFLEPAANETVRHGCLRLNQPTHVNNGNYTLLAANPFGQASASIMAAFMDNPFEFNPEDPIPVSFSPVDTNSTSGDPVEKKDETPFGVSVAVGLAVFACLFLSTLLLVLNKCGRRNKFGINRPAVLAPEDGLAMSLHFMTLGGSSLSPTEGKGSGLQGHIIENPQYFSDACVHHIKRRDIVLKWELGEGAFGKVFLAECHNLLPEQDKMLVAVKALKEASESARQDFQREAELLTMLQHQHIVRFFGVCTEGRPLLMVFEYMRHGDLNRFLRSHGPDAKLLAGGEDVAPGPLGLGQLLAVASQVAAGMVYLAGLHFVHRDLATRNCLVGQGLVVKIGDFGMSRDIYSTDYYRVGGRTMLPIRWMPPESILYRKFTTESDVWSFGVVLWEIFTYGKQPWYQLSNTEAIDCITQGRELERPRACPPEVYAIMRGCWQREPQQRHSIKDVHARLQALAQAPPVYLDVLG
Experimental: as §1, §2, §3, §4

## COc1ccc(/C=C2\N=C(C)N(c3ccc(CC(=O)NCc4ccccc4)cc3)C2=O)cc1 [Compound 4c, (Z)-N-Benzyl-2-(4-(4-(4-methoxybenzylidene)-2-methyl-5-oxo-4,5-dihydro-1H-imidazol-1-yl)phenyl)acetamide]
EphA4 (P54764)
  Mean Final score (Kinase score): 1.356
  Mean Kinase Statistic: -0.7819
  Mean Significance Score: 1.252
  Mean Specificity Score: 0.07789
Fes (P07332)
  Mean Significance Score: 2.048
  Mean Specificity Score: 1.058
Fes (P07332); listed as KIM-161
  Mean Final score (Kinase score): 3.13 and 3.128
Fgr (P09769)
  Mean Final score (Kinase score): 2.293
  Mean Kinase Statistic: -1.161
  Mean Significance Score: 1.8658
  Mean Specificity Score: 0.2752
Lmr1 (Q6ZMQ8)
  Mean Final score (Kinase score): 2.52
  Mean Kinase Statistic: -1.33
  Mean Significance Score: 1.989
  Mean Specificity Score: 0.4793
RYK (H0Y8A4)
  Mean Final score (Kinase score): 2.574
  Mean Kinase Statistic: -1.293
  Mean Significance Score: 2.048
  Mean Specificity Score: 0.5126
TRKA (P04629)
  Mean Final score (Kinase score): 2.339
  Mean Kinase Statistic: -1.138
  Mean Significance Score: 2.048
  Mean Specificity Score: 0.2694
